{"source": "patent US4721711A", "about": "“Pyridazine derivatives active on the central nervous system, and medicaments in which they are present” (Sanofi, priority 1983, dated 1988)", "key": {"[1]": {"target": "GABA post-synaptic receptor", "test": "displacement of tritiated GABA from its post-synaptic receptor (synaptic membranes, Enna and Snyder)", "assay_type": "binding", "conditions": "in vitro, tritiated GABA 3.6 nM, read-out: Median effective concentration (EC50) for displacement of tritiated GABA", "method": "The products according to the invention were studied for their activity on the central nervous system. Activity on the displacement of .UPSILON.-aminobutyric acid from its post-synaptic receptor. Method: The neurochemical activity of the derivatives of the present invention on the GABA-ergic system was evaluated by measuring the displacement of .UPSILON.-aminobutyric acid (GABA) from its post-synaptic receptor. The study was carried out by the method of ENNA and […] (Brain Res. 100, 81-97, 1975). The displacement experiment was carried out in vitro in the presence of a suspension of synaptic membranes and tritiated GABA at a final concentration of 3.6 nM."}, "[2]": {"system": "rotational behaviour of mice", "test": "rotational behaviour of mice after unilateral lesion of the nigro-striated passage by 6-(OH)-dopamine", "assay_type": "in vivo, CD1 Charles River female mice", "conditions": "intraperitoneal, 1 hour after administration, over 2 minutes, **p 0.01", "method": "3. Effect on the rotational behaviour of mice after unilateral lesion of the nigro-striated passage by 6-(OH)-dopamine\nThe influence of the derivatives of the present invention on the central dopaminergic system was evaluated on the rotational behaviour of mice after unilateral lesion of the nigro-striated passage by 6-(OH)-dopamine. (P. PROTAIS and J. COSTENTIN, J. Pharmacol. 7(2), 251-255, 1976).\nCD1 Charles River female mice, weighing 20 to 24 g, have previously undergone unilateral lesion of the striatum by the stereotaxic injection of 6-(OH)-dopamine at a dose of 8 μg per animal. One week after this operation, the product to be studied was administered intraperitoneally to grouos of 7 mice. The number of rotations was evaluated over 2 minutes, 1 hour after the administration of the product. The rotations on the same side as the lesion were counted as positive and those on the opposite side were counted as negative. The algebraic sum of the rotations for a group treated animals was compared with that for the group of control animals which had only received the vehicle (physiological serum)."}, "[3]": {"system": "spontaneous motility of mice", "test": "spontaneous motility of mice (activity test)", "assay_type": "in vivo", "conditions": "oral, 45 minutes after administration, recorded 10 minutes", "method": "1. Activity on the motility of mice\nThe tranquillising-sedative activity of the derivatives of the present invention was evaluated by measuring the spontaneous motility of mice by means of the activity test (J. R. BOISSIER and P. SIMON, Arch. Int. Pharmacodyn. 1965, 158, 212-221).\nThe equipment consisted of activity cages of the Apelab type (length=26 cm; width=21.5 cm; height=10 cm), through which two rays of light pass, acting on a photoelectric cell.\nThe animals were placed individually in the cages 45 minutes after oral administration of the product: each crossing of a light beam was counted by an individual counter. The scores corresponding to the movements of the animals were recorded for 10 minutes. The batches consisted of 12 mice per dose."}, "[4]": {"system": "reserpine-induced ptosis in mice", "test": "antagonism of reserpine-induced ptosis in mice", "assay_type": "in vivo", "conditions": "Mus musculus, ip; intraperitoneal, with reserpine 2 mg/kg i.v., 1 hour, probit; (26-32)* on the line below", "method": "2. Effect on the antagonism of reserpine-induced ptosis\nThe antidepressive activity of the compounds was evaluated in the test for the antagonism of reserpine-induced ptosis in mice.\nThis study was carried out on batches of 10 female mice weighing 20±1 g. The products were administered intraperitoneally at the same time as the reserpine (2 mg/kg, administered intravenously). The mice were observed individually 1 hour after the administrations. […] The median effective dose for antagonism (ED50) was evaluated by the probit method."}}, "data": [{"smiles": "Cc1cc(-c2cccc3ccccc23)n[n+](CCCC(=O)O)c1N", "note": "[Example 24, 3-Amino-2-(3-carboxypropyl)-4-methyl-6-(naphth-1-yl)-2-pyridazinium chloride]", "values": [{"measurement": "EC50", "setting": "[1]", "value": 2.9, "unit": "µM"}]}, {"smiles": "COc1ccc(-c2cc(C)c(N)[n+](CCCC(=O)O)n2)cc1", "note": "[Example 27]", "values": [{"measurement": "EC50", "setting": "[1]", "value": 5, "unit": "µM"}]}, {"smiles": "Cc1cc(-c2ccccc2Cl)n[n+](CCCC(=O)O)c1N", "note": "[Example 29]", "values": [{"measurement": "EC50", "setting": "[1]", "value": 3.2, "unit": "µM"}]}, {"smiles": "Nc1ccc(-c2ccc(Cl)cc2Cl)n[n+]1CCCC(=O)O", "note": "[Example 30]", "values": [{"measurement": "EC50", "setting": "[1]", "value": 7, "unit": "µM"}]}, {"smiles": "Nc1ccc(-c2ccc(Cl)cc2)n[n+]1CCCC(=O)O", "note": "[Example 31]", "values": [{"measurement": "EC50", "setting": "[1]", "value": 1.25, "unit": "µM"}]}, {"smiles": "Cc1cc(-c2cccc(Cl)c2)n[n+](CCCC(=O)O)c1N", "note": "[Example 33]", "values": [{"measurement": "EC50", "setting": "[1]", "value": 0.7, "unit": "µM"}]}, {"smiles": "Cc1ccc(-c2cc(C)c(N)[n+](CCCC(=O)O)n2)cc1", "note": "[Example 34]", "values": [{"measurement": "EC50", "setting": "[1]", "value": 0.71, "unit": "µM"}]}, {"smiles": "Cc1cc(-c2ccccc2)n[n+](CCCC(=O)O)c1N", "note": "[Example 37]", "values": [{"measurement": "EC50", "setting": "[1]", "value": 2.8, "unit": "µM"}]}, {"smiles": "Nc1ccc(-c2ccccc2)n[n+]1CCCC(=O)O", "note": "[Example 38]", "values": [{"measurement": "EC50", "setting": "[1]", "value": 1.34, "unit": "µM"}]}, {"smiles": "Cc1cc(-c2ccccc2)n[n+](CCC(=O)O)c1N", "note": "[Example 39]", "values": [{"measurement": "EC50", "setting": "[1]", "value": 10, "unit": "µM"}]}, {"smiles": "Cc1cc(-c2ccccc2)n[n+](CCCCC(=O)O)c1N", "note": "[Example 40]", "values": [{"measurement": "Rotational behaviour of mice, effect", "setting": "[2]; 0,5 mg/kg", "value": -50, "unit": "%"}, {"measurement": "Rotational behaviour of mice, effect", "setting": "[2]; 2 mg/kg", "value": -62, "unit": "%"}, {"measurement": "Motility of the mice, effect", "setting": "[3]; 50 mg/kg, *p 0.05", "value": -33, "unit": "%"}, {"measurement": "Motility of the mice, effect", "setting": "[3]; 100 mg/kg, **p 0.01", "value": -48, "unit": "%"}, {"measurement": "ED50", "setting": "[4]", "value": 29, "unit": "mg/kg"}]}, {"smiles": "Nc1ccc(C2CCCCC2)n[n+]1CCCC(=O)O", "note": "[Example 41]", "values": [{"measurement": "EC50", "setting": "[1]", "value": 10.5, "unit": "µM"}]}, {"smiles": "Nc1ccc(-c2ccsc2)n[n+]1CCCC(=O)O", "note": "[Example 42]", "values": [{"measurement": "EC50", "setting": "[1]", "value": 2.4, "unit": "µM"}]}, {"smiles": "Nc1ccc(-c2cccs2)n[n+]1CCCC(=O)O", "note": "[Example 43]", "values": [{"measurement": "EC50", "setting": "[1]", "value": 0.83, "unit": "µM"}]}, {"smiles": "Cc1cc(-c2ccc(O)cc2)n[n+](CCCC(=O)O)c1N", "note": "[Example 47, 3-Amino-2-(3-carboxypropyl)-4-methyl-6-(4-hydroxyphenyl)-2-pyridazinium bromide]", "values": [{"measurement": "EC50", "setting": "[1]", "value": 3, "unit": "µM"}]}]}
